One block for each compound: values may come before it.
What was measured:
SA surface [1] = biological target: T1, SA surface (Streptomyces avidinii, UniProt P22629); test: Biotin binding to SA surface in FBS, with and without trehalose blocking; conditions: for shift from biotin binding to SA surface: SA shift 5.8 nm
Method: In order to test the affect of trehalose on specific protein-protein interactions, the ability of trehalose to interfere with the ability of biotin to bind to a SA surface was measured. Biotin in either 10% or 100% FBS was allowed to react with the SA surface with the 5.8 nm PWV shift, and the resulting shift measured (see Table 8). The theoretical shift resulting from Biotin binding, shown in parenthesis, was calculated from the following formula: (Mol. Wt. of Biotin/Mol. Wt. of SA)×# of binding sites on SA for biotin×SA shift, or (244/55000)×4 (binding sites)×5.8 nm (SA shift).

Carbonic Anhydrase (CA) = test: CBS binding to carbonic anhydrase after blocking with 5% trehalose (PWV shift); conditions: 5% trehalose block
Method: FIG. 5 represents the normalized peak wavelength value (PWV) resulting from CBS binding to carbonic anhydrase after blocking with 5% trehalose.
The CA surface was blocked with 5% trehalose. Trehalose blocking of non-specific interactions of CBS to the surface enabled detection of specific binding to CA below 1 μM.

[2] = Sugars binding to amine surfaces (PWV change); conditions: for PWV change after over night incubation and wash: stored overnight in water
Method: Lactose and glyceraldehyde solutions in water at 5% and 2.5% respectively were added to a BIND™ sensor plate functionalized with amine functional groups for 2 hrs. The plate was then washed thoroughly with water and stored overnight in water. The plates were then washed again with water and the binding of sugars was measured.

SA surface [3] = biological target: T1, SA surface; test: Trehalose efficacy to reduce non-specific FBS binding to the SA surface; conditions: for FBS 10% binding to SA surface (shift normalized to trehalose shift) / FBS 100% binding to SA surface (shift normalized to trehalose shift): blocked with 5% Trehalose
Method: In order to test the efficacy of trehalose to reduce non-specific binding, the ability of trehalose to reduce Fetal Bovine Serum (FBS) binding to the SA surface was measured. 10% and 100% commercially available FBS was allowed to react with either the SA surface with the 2 nm PWV shift or the 5.8 nm PWV shift, and the resulting shift measured (see Table 7 and FIG. 3). The shifts were normalized to the trehalose shift by considering the resulting signal after the surface has been blocked to be zero, or baseline. The change in binding due to the protein present in FBS is then measured and reported as non-specific binding.

[4] = Blocking of streptavidin (SA) surface with 5% trehalose (blocker PWV shift); assay type: binding; conditions: 2 hrs
Method: (§1) 40 μl of 5% Trehalose solution was added to SA immobilized wells (0.05 mg/ml SA and 0.2 mg/ml SA) and control wells (Trehalose alone) and were allowed to bind for 2 hrs. The plates were washed and the peak wavelength value (PWV) shift was measured (See Table 6 and FIG. 2). The SA shift was the PWV of SA binding to the aldehyde surface, while the blocker shift was the PWV shift obtained after the blocker was allowed to bind to the unreacted aldehyde functional groups on the SA-immobilized aldehyde surface. The unreacted aldehydes are more easily accessed by the small blocker molecule than the bigger SA molecules. The blocker shift is lower with higher SA concentration likely because there are less aldehydes available for binding the blocker in these wells.

[5] = SA binding to the aldehyde surface (PWV shift)
Method: as §1

Compound: O=C(O)CCCC[C@@H]1SC[C@@H]2NC(=O)N[C@@H]21 [Biotin]
theoretical shift resulting from Biotin binding (in parenthesis) (SA surface [1]; (244/55000) x 4 binding sites x 5.8 nm SA shift): 0.104 nm | shift from biotin binding to SA surface (SA surface [1]; biotin in FBS 10%, 5% Trehalose): 0.09 nm | shift from biotin binding to SA surface (SA surface [1]; biotin in FBS 10%, No Trehalose): 0.08 nm | shift from biotin binding to SA surface (SA surface [1]; biotin in FBS 100%, 5% Trehalose): 0.1 nm | shift from biotin binding to SA surface (SA surface [1]; biotin in FBS 100%, No Trehalose): 0.12 nm

PWV shift of CBS binding to CA (Carbonic Anhydrase (CA); CBS 0.05 μM): 0.000 nm | PWV shift of CBS binding to CA (Carbonic Anhydrase (CA); CBS 0.10 μM): 0.001 nm | PWV shift of CBS binding to CA (Carbonic Anhydrase (CA); CBS 0.20 μM): 0.003 nm | PWV shift of CBS binding to CA (Carbonic Anhydrase (CA); CBS 0.39 μM): 0.005 nm | PWV shift of CBS binding to CA (Carbonic Anhydrase (CA); CBS 0.78 μM): 0.010 nm | PWV shift of CBS binding to CA (Carbonic Anhydrase (CA); CBS 1.56 μM): 0.020 nm | PWV shift of CBS binding to CA (Carbonic Anhydrase (CA); CBS 3.13 μM): 0.037 nm | PWV shift of CBS binding to CA (Carbonic Anhydrase (CA); CBS 6.25 μM): 0.045 nm | PWV shift of CBS binding to CA (Carbonic Anhydrase (CA); CBS 12.50 μM): 0.054 nm | PWV shift of CBS binding to CA (Carbonic Anhydrase (CA); CBS 25.00 μM): 0.054 nm | PWV shift of CBS binding to CA (Carbonic Anhydrase (CA); CBS 50.00 μM): 0.062 nm
Compound: NS(=O)(=O)C(=O)O [CBS, Carboxysulfonamide]

PWV change after 2 hr incubation and wash ([2]; 2.5% solution in water): 1.75 nm | PWV change after over night incubation and wash ([2]; 2.5% solution in water): 1.72 nm
Compound: O=CC(O)CO (stereo not shown) [Glyceraldehydes, glyceraldehyde]

PWV change after 2 hr incubation and wash ([2]; 5% solution in water): 4.86 nm | PWV change after over night incubation and wash ([2]; 5% solution in water): 4.82 nm
Compound: OC[C@H]1O[C@@H](O[C@H]2[C@H](O)[C@@H](O)C(O)O[C@@H]2CO)[C@H](O)[C@@H](O)[C@H]1O (stereo partly shown) [Lactose]

Compound: OC[C@H]1O[C@H](O[C@H]2O[C@H](CO)[C@@H](O)[C@H](O)[C@H]2O)[C@H](O)[C@@H](O)[C@@H]1O [Trehalose]
interference with biotin binding to SA (SA surface [1]): does not seem to interfere with biotin binding | effect on non-specific binding of proteins from FBS to the SA surface (SA surface [3]): reduced the non-specific binding of proteins from FBS to the SA surface | FBS 10% binding to SA surface (shift normalized to trehalose shift) (SA surface [3]; SA shift 2 nm surface): 2.41 nm | FBS 100% binding to SA surface (shift normalized to trehalose shift) (SA surface [3]; SA shift 2 nm surface): 1.27 nm | FBS 10% binding to SA surface (shift normalized to trehalose shift) (SA surface [3]; SA shift 5.8 nm surface): 0.62 nm | FBS 100% binding to SA surface (shift normalized to trehalose shift) (SA surface [3]; SA shift 5.8 nm surface): 0.07 nm | Blocker shift 5% Trehalose ([4]; aldehyde surface (no streptavidin)): 2.91 nm | Blocker shift 5% Trehalose ([4]; wells immobilized with 0.05 mg/mL SA): 2.96 nm | Blocker shift 5% Trehalose ([4]; wells immobilized with 0.2 mg/mL SA): 2.19 nm

SA shift ([5]; 0.05 mg/mL SA during immobilization): 2.00 Nm | SA shift ([5]; 0.2 mg/mL SA during immobilization): 5.81 Nm
Compound: streptavidin [SA]

From patent publication US20080213910A1, “METHOD FOR BLOCKING NON-SPECIFIC PROTEIN BINDING ON A FUNCTIONALIZED SURFACE” (priority 2006, published 2008)
